Source: US8026251B2, “Huperzine A and its derivatives as analgesic agents” (priority 2005, dated 2011)

What was measured:
[1] = test system: migraine; assay: Treatment of migraine with oral huperzine A (clinical cases); assay type: in vivo, human; conditions: for Time from administration until headache completely disappeared: two tablets (50 μg/tablet) oral on occurrence of migraine
Protocol: Test 2: Treatment of Migraine with Oral Huperzine A
Drug: Huperzine A Tablet (50 μg/tablet, manufactured by Henan Zhulin Zhongsheng Pharmaceutical Factory.)
Previously treated with bufferin plus, but recently reported that analgesic effects of bufferin plus have weakened.
Methods: On occurrence of migraine pains (8 times within a month), two tablets of huperzine A were administered. Within 20 minutes from administration, the headache has completely disappeared.
Patient: with a medical history of migraine of 2 years. Previously treated with ergotamine, but recently reported that analgesic effects of ergotamine have weakened.
Methods: On occurrence of migraine pains (10 times within a month), two tablets of huperzine A were administered. Within 30 minutes from administration, the headache has completely disappeared.
Patient: with a medical history of migraine of 3 years, occurring at a frequency of about 8-12 times per month.
Methods: One tablet of huperzine A was administered per day orally.

[2] = test system: mice; assay: Hot plate test (pain threshold, mice); assay type: in vivo, Kunming mice; conditions: x ± s, n = 10; for Pain thresholds before administration: hot plate 55°C, baseline before administration; for Pain thresholds after administration at 30 min / Pain thresholds after administration at 60 min / Pain thresholds after administration at 120 min / Pain thresholds after administration at 180 min / Pain thresholds after administration at 240 min: hot plate
Protocol: Kunming mice, grade 2, female, weight of 20±2 g, purchased from the Division of Laboratory Animals, Department of Medical Sciences of Peking University, animal license No.: SCX Jing 2002-0001.
1.2.1 Solutions of huperzine A and huperzine A derivatives in normal saline water were prepared for stomach perfusion of mice.
1.2.2 Solutions of bucinnazine hydrochloride tablets, 30 mg/tablet, manufactured by Tianjin Lisheng Pharmaceutical Factory, approval No.: 0201001, in normal saline solution were prepared at a concentration of 1.5 mg/ml for stomach perfusion of mice.
A water bath was heated to a constant temperature of 55±0.5° C. The bottom of a metal plate was placed in contact with water surface. A mouse was placed on the hot plate and a timer was activated. The timer was deactivated when the mouse began licking its rear feet. The measured time was taken as the pain threshold. The pain threshold was measured two times for each mouse, and those mice whose average pain threshold was less than 30 s were qualified for the experiment.
Qualified mice were randomly divided into groups of 10. At first the pain threshold before administration of a drug was measured. Then drugs were administered as identified in Table 1. The administration volume was 0.2 ml per each 10 g of weight. Normal saline solution was administered to the control group. After administration, the pain threshold was measured at different time periods post-administration. A statistical t-test was calculated of the group interval, based on the test data.

C/C=C1\[C@H]2C=C(C)C[C@]1(N)c1ccc(=O)[nH]c1C2 [Huperzine A, (5R,9R,11E)-5-amino-11-ethylidene-5,6,9,10-tetrahydro-7-methyl-5,9-methanocycloocta[b]pyridin-2(1H)-one]
Time from administration until headache completely disappeared ([1]; Case 1, migraine patient): ≤ 20 min
Analgesic effects over a period of one month ([1]; Case 1, two tablets (50 μg/tablet) oral per attack): Good analgesic effects
Side effects ([1]; Case 1, two tablets (50 μg/tablet) oral per attack, 8 times within a month): Minor side effects
Time from administration until headache completely disappeared ([1]; Case 2, migraine patient): ≤ 30 min
Analgesic effects over a period of one month ([1]; Case 2, two tablets (50 μg/tablet) oral per attack): Good analgesic effects
Side effects ([1]; Case 2, two tablets (50 μg/tablet) oral per attack, 10 times within a month): No side effects
Migraine attacks over the period of 1 month (prevention) ([1]; Case 3, migraine about 8-12 times per month, one tablet (50 μg) per day orally): did not complain of migraine attacks
Effect of long-term administration on migraine attacks ([1]; long-term administration, summary statement): prevents migraine attacks
Effect on migraine in clinical studies ([1]; oral administration, summary statement): alleviates and/or cures migraine
Pain thresholds before administration ([2]; group later dosed 0.2 mg/kg by stomach perfusion): 14.2 ± 4.49 s
Pain thresholds before administration ([2]; group later dosed 0.4 mg/kg by stomach perfusion): 15.3 ± 2.86 s
Pain thresholds after administration at 30 min ([2]; 0.2 mg/kg stomach perfusion): 13.3 ± 4.05 s
Pain thresholds after administration at 60 min ([2]; 0.2 mg/kg stomach perfusion): 14.5 ± 5.08 s
Pain thresholds after administration at 120 min ([2]; 0.2 mg/kg stomach perfusion): 14.2 ± 5.20 s
Pain thresholds after administration at 180 min ([2]; 0.2 mg/kg stomach perfusion): 13.3 ± 3.68 s
Pain thresholds after administration at 240 min ([2]; 0.2 mg/kg stomach perfusion): 14.6 ± 2.84 s
Pain thresholds after administration at 30 min ([2]; 0.4 mg/kg stomach perfusion): 28.4 ± 8.12 s
Pain thresholds after administration at 60 min ([2]; 0.4 mg/kg stomach perfusion): 31.7 ± 10.56 s
Pain thresholds after administration at 120 min ([2]; 0.4 mg/kg stomach perfusion): 27.6 ± 8.22 s
Pain thresholds after administration at 180 min ([2]; 0.4 mg/kg stomach perfusion): 25.5 ± 8.88 s
Pain thresholds after administration at 240 min ([2]; 0.4 mg/kg stomach perfusion): 27.8 ± 5.94 s

C/C=C1\[C@H]2C=C(C)C[C@]1(NC(=O)OCC(C)C)c1ccc(=O)[nH]c1C2 [Example 7, (5R,9R,11E)-5-(2-methylpropoxycarbonylamino)-11-ethylidene-5,6,9,10-tetrahydro-7-methyl-5,9-methanocycloocta[b]pyridin-2(1H)-one]
Pain thresholds before administration ([2]; group later dosed 0.6 mg/kg by stomach perfusion): 15.8 ± 3.97 s
Pain thresholds after administration at 30 min ([2]; 0.6 mg/kg stomach perfusion): 28.5 ± 2.55 s
Pain thresholds after administration at 60 min ([2]; 0.6 mg/kg stomach perfusion): 30.1 ± 6.90 s
Pain thresholds after administration at 120 min ([2]; 0.6 mg/kg stomach perfusion): 27.7 ± 4.49 s
Pain thresholds after administration at 180 min ([2]; 0.6 mg/kg stomach perfusion): 23.1 ± 2.41 s
